Measured values: ChEMBL document CHEMBL1150165, “Antineoplastic agents. 489. Isolation and structures of meliastatins 1-5 and related euphane triterpenes from the tree Melia dubia” (2002)
Values after ≈ are worked out from the molar mass of the structure shown.

Columns and labels:
Format in all cases: functional
P388 = assay: Growth inhibition of mouse P388 cells; details: read-out: ED50 (the source's name)
MCF7 = assay: Growth inhibition of human MCF7 cells
SF-268 = assay: Growth inhibition of human SF268 cells
KM-20L2 = assay: Growth inhibition of human KM20L2 cells
NCI-H460 = assay: Growth inhibition of human NCI-H460 cells
BXPC-3 = assay: Growth inhibition of human BxPC3 cells
DU-145 = assay: Growth inhibition of human DU145 cells

Compound	EC50 (P388) [µg/mL]	GI50 (MCF7) [µg/mL]	GI50 (SF-268) [µg/mL]	GI50 (KM-20L2) [µg/mL]	GI50 (NCI-H460) [µg/mL]	GI50 (BXPC-3) [µg/mL]	GI50 (DU-145) [µg/mL]
CC(C)=CCC[C@@H](C)[C@@H]1[C@@H](O)C[C@]2(C)C3=CC[C@H]4C(C)(C)[C@@H](O)CC[C@]4(C)[C@H]3CC[C@@]12C	2.5 (≈ 5.65 µM)						
C=C(C)[C@@H]1CCC([C@@H]2[C@@H](O)C[C@]3(C)C4=CC[C@H]5C(C)(C)C(=O)CC[C@]5(C)[C@H]4CC[C@@]23C)C(=O)O1 (stereo not given in full) [DUBIONE B]	20.5 (≈ 43.7 µM)						
O=c1[nH]cc(F)c(=O)[nH]1 [FLUOROURACIL]	0.075 (≈ 0.577 µM)						
CC(C)=CCC[C@H]1C(=O)O[C@H]2C[C@]3(C)C4=CC[C@H]5C(C)(C)C(=O)CC[C@]5(C)[C@H]4CC[C@@]3(C)[C@@H]21 [KULACTONE]	6.2 (≈ 13.7 µM)						
CC(C)=CCC[C@@H](C)[C@@H]1[C@@H](O)C[C@]2(C)C3=CC[C@H]4C(C)(C)C(=O)CC[C@]4(C)[C@H]3CC[C@@]12C [KULINONE]	4.6 (≈ 10.4 µM)	3.6 (≈ 8.17 µM)	3.6 (≈ 8.17 µM)	3.6 (≈ 8.17 µM)	3.6 (≈ 8.17 µM)	3.61 (≈ 8.19 µM)	3.6 (≈ 8.17 µM)
C[C@H](C/C=C/C(C)(C)O)[C@@H]1[C@@H](O)C[C@]2(C)C3=CC[C@H]4C(C)(C)C(=O)CC[C@]4(C)[C@H]3CC[C@@]12C [MELIASTATIN 1]	2.5 (≈ 5.47 µM)	1.9 (≈ 4.16 µM)	1.9 (≈ 4.16 µM)	1.9 (≈ 4.16 µM)	1.9 (≈ 4.16 µM)	1.9 (≈ 4.16 µM)	1.9 (≈ 4.16 µM)
COC(=O)[C@H](C/C=C/C(C)(C)O)[C@@H]1[C@@H](O)C[C@]2(C)C3=CC[C@H]4C(C)(C)C(=O)CC[C@]4(C)[C@H]3CC[C@@]12C [MELIASTATIN 2]	5.6 (≈ 11.2 µM)	6.3 (≈ 12.6 µM)	6.3 (≈ 12.6 µM)	6.3 (≈ 12.6 µM)	6.3 (≈ 12.6 µM)	6.3 (≈ 12.6 µM)	6.3 (≈ 12.6 µM)
COC(=O)[C@H](C/C=C/C(C)(C)OO)[C@@H]1[C@@H](O)C[C@]2(C)C3=CC[C@H]4C(C)(C)C(=O)CC[C@]4(C)[C@H]3CC[C@@]12C [MELIASTATIN 3]	3.1 (≈ 6 µM)						
C=C(C)[C@@H](O)CC[C@@H](C(=O)OC)[C@@H]1[C@@H](O)C[C@]2(C)C3=CC[C@H]4C(C)(C)C(=O)CC[C@]4(C)[C@H]3CC[C@@]12C [MELIASTATIN 4]	2 (≈ 3.99 µM)						
C=C(C)C(O)CC[C@@H](C)[C@@H]1[C@@H](O)C[C@]2(C)C3=CC[C@H]4C(C)(C)C(=O)CC[C@]4(C)[C@H]3CC[C@@]12C (stereo not given in full) [MELIASTATIN 5]	1.7 (≈ 3.72 µM)						
COC(=O)[C@H](CCC=C(C)C)[C@@H]1[C@@H](O)C[C@]2(C)C3=CC[C@H]4C(C)(C)C(=O)CC[C@]4(C)[C@H]3CC[C@@]12C [METHYL KULONATE]	5.1 (≈ 10.5 µM)	3.7 (≈ 7.63 µM)	3.7 (≈ 7.63 µM)	3.7 (≈ 7.63 µM)	3.7 (≈ 7.63 µM)	3.7 (≈ 7.63 µM)	3.7 (≈ 7.63 µM)
